# Data as given in PubChem BioAssay (NCI).
#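 Each compound was tested at five concentrations against cells in 96-well plates for 48 hours. The concentration for 50% growth inhibition is given as GI50. TGI denotes the concentration required for complete inhibition of growth.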
# Key:
# Assay in all cases: growth of human tumour cells (NCI), 48 h
# CCRF-CEM leukemia = system: CCRF-CEM leukemia
# HOP-62 NSCLC = system: HOP-62 NSCLC
# COLO 205 colon = system: COLO 205 colon
# SNB-75 CNS = system: SNB-75 CNS
# NCI-H522 lung = system: NCI-H522 lung
# LOX IMVI melanoma = system: LOX IMVI melanoma
# MCF7 breast = system: MCF7 breast
# HCC-2998 colon = system: HCC-2998 colon
# UACC-62 melanoma = system: UACC-62 melanoma
# NCI-H23 lung = system: NCI-H23 lung
# PC-3 prostate = system: PC-3 prostate
# SNB-19 CNS = system: SNB-19 CNS
# SN12C renal = system: SN12C renal
# NCI-H226 lung = system: NCI-H226 lung
# SK-MEL-28 melanoma = system: SK-MEL-28 melanoma
# RXF 393 renal = system: RXF 393 renal
# CAKI-1 renal = system: CAKI-1 renal
# SR leukemia = system: SR leukemia
# HCT-116 colon = system: HCT-116 colon
# OVCAR-3 ovarian = system: OVCAR-3 ovarian
# OVCAR-4 ovarian = system: OVCAR-4 ovarian
# OVCAR-8 ovarian = system: OVCAR-8 ovarian
# TK-10 renal = system: TK-10 renal
# SF-539 CNS = system: SF-539 CNS
# IGROV1 ovarian = system: IGROV1 ovarian
# MDA-MB-231 breast = system: MDA-MB-231 breast
# DU-145 prostate = system: DU-145 prostate
# HT29 colon = system: HT29 colon
# MALME-3M melanoma = system: MALME-3M melanoma
# K-562 leukemia = system: K-562 leukemia
# SK-MEL-5 melanoma = system: SK-MEL-5 melanoma
# ACHN renal = system: ACHN renal
# NCI-H460 lung = system: NCI-H460 lung
# UO-31 renal = system: UO-31 renal
# M14 melanoma = system: M14 melanoma
# SK-MEL-2 melanoma = system: SK-MEL-2 melanoma
# MDA-MB-435 = system: MDA-MB-435
# RPMI-8226 leukemia = system: RPMI-8226 leukemia
# T-47D breast = system: T-47D breast
# HOP-92 NSCLC = system: HOP-92 NSCLC
# BT-549 breast = system: BT-549 breast
# A549 NSCLC = system: A549 NSCLC
# UACC-257 melanoma = system: UACC-257 melanoma
# 786-0 renal = system: 786-0 renal
# SK-OV-3 ovarian = system: SK-OV-3 ovarian
# OVCAR-5 ovarian = system: OVCAR-5 ovarian
# SF-295 CNS = system: SF-295 CNS
# HCT-15 colon = system: HCT-15 colon
# KM12 colon = system: KM12 colon
# MOLT-4 leukemia = system: MOLT-4 leukemia
# NCI/ADR-RES ovarian = system: NCI/ADR-RES ovarian
# A498 renal = system: A498 renal
# U251 CNS = system: U251 CNS
# HS 578T breast = system: HS 578T breast
# SF-268 CNS = system: SF-268 CNS
# SW-620 colon = system: SW-620 colon
# HL-60(TB) leukemia = system: HL-60(TB) leukemia
smiles,measurement,setting,value
COc1ccc2c(c1OC)O/C(=C\c1ncc([N+](=O)[O-])n1C)C2=O,GI50,CCRF-CEM leukemia,297 nM
same,TGI,CCRF-CEM leukemia,2830 nM
same,GI50,HOP-62 NSCLC,3.67 µM
same,TGI,HOP-62 NSCLC,17.4 µM
same,GI50,COLO 205 colon,1160 nM
same,TGI,COLO 205 colon,2860 nM
same,GI50,SNB-75 CNS,2140 nM
same,TGI,SNB-75 CNS,6.85 µM
same,GI50,NCI-H522 lung,1360 nM
same,TGI,NCI-H522 lung,3.48 µM
same,GI50,LOX IMVI melanoma,482 nM
same,TGI,LOX IMVI melanoma,2040 nM
same,GI50,MCF7 breast,2060 nM
same,TGI,MCF7 breast,> 27.8 µM
same,GI50,HCC-2998 colon,2160 nM
same,TGI,HCC-2998 colon,4.73 µM
same,GI50,UACC-62 melanoma,1490 nM
same,TGI,UACC-62 melanoma,3.36 µM
same,GI50,NCI-H23 lung,1300 nM
same,TGI,NCI-H23 lung,5.6 µM
same,GI50,PC-3 prostate,3.76 µM
same,TGI,PC-3 prostate,> 29.4 µM
same,GI50,SNB-19 CNS,3.69 µM
same,TGI,SNB-19 CNS,23.1 µM
same,GI50,SN12C renal,1780 nM
same,TGI,SN12C renal,8.83 µM
same,GI50,NCI-H226 lung,7.29 µM
same,TGI,NCI-H226 lung,50.8 µM
same,GI50,SK-MEL-28 melanoma,623 nM
same,TGI,SK-MEL-28 melanoma,3.43 µM
same,GI50,RXF 393 renal,774 nM
same,TGI,RXF 393 renal,2270 nM
same,GI50,CAKI-1 renal,376 nM
same,TGI,CAKI-1 renal,2460 nM
same,GI50,SR leukemia,103 nM
same,GI50,HCT-116 colon,455 nM
same,TGI,HCT-116 colon,3.68 µM
same,GI50,OVCAR-3 ovarian,1600 nM
same,TGI,OVCAR-3 ovarian,6.16 µM
same,GI50,OVCAR-4 ovarian,5.95 µM
same,TGI,OVCAR-4 ovarian,> 75.2 µM
same,GI50,OVCAR-8 ovarian,639 nM
same,TGI,OVCAR-8 ovarian,3.66 µM
same,GI50,TK-10 renal,3.26 µM
same,TGI,TK-10 renal,> 24.1 µM
same,GI50,SF-539 CNS,3.1 µM
same,TGI,SF-539 CNS,10.2 µM
same,GI50,IGROV1 ovarian,1360 nM
same,TGI,IGROV1 ovarian,9.46 µM
same,GI50,MDA-MB-231 breast,1370 nM
same,TGI,MDA-MB-231 breast,5.32 µM
same,GI50,DU-145 prostate,1420 nM
same,TGI,DU-145 prostate,6.27 µM
same,GI50,HT29 colon,836 nM
same,TGI,HT29 colon,5.02 µM
same,GI50,MALME-3M melanoma,1150 nM
same,TGI,MALME-3M melanoma,3.53 µM
same,GI50,K-562 leukemia,2120 nM
same,TGI,K-562 leukemia,7.99 µM
same,GI50,SK-MEL-5 melanoma,905 nM
same,TGI,SK-MEL-5 melanoma,2350 nM
same,GI50,ACHN renal,342 nM
same,TGI,ACHN renal,1460 nM
same,GI50,NCI-H460 lung,925 nM
same,TGI,NCI-H460 lung,4.83 µM
same,GI50,UO-31 renal,957 nM
same,TGI,UO-31 renal,4.39 µM
same,GI50,M14 melanoma,591 nM
same,TGI,M14 melanoma,2520 nM
same,GI50,SK-MEL-2 melanoma,681 nM
same,TGI,SK-MEL-2 melanoma,1720 nM
same,GI50,MDA-MB-435,277 nM
same,TGI,MDA-MB-435,1110 nM
same,GI50,RPMI-8226 leukemia,3.07 µM
same,TGI,RPMI-8226 leukemia,16.4 µM
same,GI50,T-47D breast,> 70.9 µM
same,TGI,T-47D breast,> 100 µM
same,GI50,HOP-92 NSCLC,1450 nM
same,TGI,HOP-92 NSCLC,4.86 µM
same,GI50,BT-549 breast,1770 nM
same,TGI,BT-549 breast,4.46 µM
same,GI50,A549 NSCLC,2590 nM
same,TGI,A549 NSCLC,12.1 µM
same,GI50,UACC-257 melanoma,788 nM
same,TGI,UACC-257 melanoma,2670 nM
same,GI50,786-0 renal,1950 nM
same,TGI,786-0 renal,5.17 µM
same,GI50,SK-OV-3 ovarian,2710 nM
same,TGI,SK-OV-3 ovarian,9.1 µM
same,GI50,OVCAR-5 ovarian,2820 nM
same,TGI,OVCAR-5 ovarian,12.5 µM
same,GI50,SF-295 CNS,3.13 µM
same,TGI,SF-295 CNS,21.7 µM
same,GI50,HCT-15 colon,487 nM
same,TGI,HCT-15 colon,3.61 µM
same,GI50,KM12 colon,2790 nM
same,TGI,KM12 colon,10.3 µM
same,GI50,MOLT-4 leukemia,266 nM
same,GI50,NCI/ADR-RES ovarian,1720 nM
same,TGI,NCI/ADR-RES ovarian,7.87 µM
same,GI50,A498 renal,3.32 µM
same,TGI,A498 renal,10.4 µM
same,GI50,U251 CNS,2950 nM
same,TGI,U251 CNS,13.9 µM
same,GI50,HS 578T breast,2150 nM
same,TGI,HS 578T breast,> 22.8 µM
same,GI50,SF-268 CNS,1360 nM
same,TGI,SF-268 CNS,6.39 µM
same,GI50,SW-620 colon,385 nM
same,GI50,HL-60(TB) leukemia,834 nM
